Test results taken from US11590139B2, “Substituted aminopurine compounds, compositions thereof, and methods of treatment therewith” (Signal Pharmaceuticals, LLC, priority 2014, dated 2023).

Test system: Lox-IMVI melanoma cell line
Test: Lox-IMVI anti-proliferative assay (growth inhibition, Cell Titer-Glo)
Format: cell-based, human
Settings: Homo sapiens; Lox-IMVI anti-proliferative assay, IC50 activity level; read-out: Activity
Method in brief: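 Luminescence from cellular ATP measured viability at compound addition and again after 72 h of exposure (37 °C, 5% CO2, RPMI + 10% FBS). Doses spanned 0.5 nM to 10 μM in ten 3-fold steps with 0.2% DMSO. Values were fitted as % of DMSO-treated cells by sigmoidal dose-response.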

Compound	IC50 [nM]
CC[C@@H](CO)Nc1ncc2nc(Nc3c(F)cc(C#N)cc3Cl)n([C@H]3CC[C@@H](C(N)=O)CC3)c2n1 [Example 433, (1R,4s)-4-(8-(2-chloro-4-cyano-6-fluorophenylamino)-2-((S)-1-hydroxybutan-2-ylamino)-9H-purin-9-yl)cyclohexanecarboxamide]	> 1000
NC(=O)[C@H]1CC[C@@H](n2c(Nc3c(F)cc(F)cc3F)nc3cnc(N[C@@H]4CCCC[C@H](O)C4)nc32)CC1 [Example 434, (1S,4s)-4-(2-((1R,3S)-3-hydroxycycloheptylamino)-8-(2,4,6-trifluorophenylamino)-9H-purin-9-yl)cyclohexanecarboxamide]	> 1000
NC(=O)[C@H]1CC[C@@H](n2c(Nc3c(Cl)cccc3Cl)nc3cnc(N[C@@H]4CCCC[C@H](O)C4)nc32)CC1 [Example 435, (1S,4s)-4-(8-(2,6-dichlorophenylamino)-2-((1R,3S)-3-hydroxycycloheptylamino)-9H-purin-9-yl)cyclohexanecarboxamide]	> 1000
NC(=O)[C@H]1CC[C@@H](n2c(Nc3c(F)cccc3Cl)nc3cnc(N[C@@H]4CCCC[C@H](O)C4)nc32)CC1 [Example 436, (1S,4s)-4-(8-(2-chloro-6-fluorophenylamino)-2-((1R,3S)-3-hydroxycycloheptylamino)-9H-purin-9-yl)cyclohexanecarboxamide]	> 1000
NC(=O)[C@H]1CC[C@@H](n2c(Nc3c(F)cc(F)cc3Cl)nc3cnc(N[C@@H]4CCCC[C@H](O)C4)nc32)CC1 [Example 437, (1S,4s)-4-(8-(2-chloro-4,6-difluorophenylamino)-2-((1R,3S)-3-hydroxycycloheptylamino)-9H-purin-9-yl)cyclohexanecarboxamide]	> 1000
NC(=O)[C@H]1CC[C@@H](n2c(Nc3c(F)cc(Cl)cc3F)nc3cnc(N[C@@H]4CCCC[C@H](O)C4)nc32)CC1 [Example 438, (1S,4s)-4-(8-(4-chloro-2,6-difluorophenylamino)-2-((1R,3S)-3-hydroxycycloheptylamino)-9H-purin-9-yl)cyclohexanecarboxamide]	> 1000
NC(=O)[C@H]1CC[C@@H](n2c(Nc3c(Cl)cc(Cl)cc3Cl)nc3cnc(N[C@@H]4CCCC[C@H](O)C4)nc32)CC1 [Example 439, (1S,4s)-4-(2-((1R,3S)-3-hydroxycycloheptylamino)-8-(2,4,6-trichlorophenylamino)-9H-purin-9-yl)cyclohexanecarboxamide]	> 1000
NC(=O)[C@H]1CC[C@@H](n2c(Nc3ccc(Cl)c(F)c3F)nc3cnc(N[C@@H]4CCCC[C@H](O)C4)nc32)CC1 [Example 440, (1S,4s)-4-(8-(4-chloro-2,3-difluorophenylamino)-2-((1R,3S)-3-hydroxycycloheptylamino)-9H-purin-9-yl)cyclohexanecarboxamide]	> 1000
CC(C)Nc1ncc2nc(Nc3c(F)cc(C#N)cc3F)n([C@H]3CC[C@@H](C(N)=O)CC3)c2n1 [Example 441, (1s,4s)-4-(8-(4-cyano-2,6-difluorophenylamino)-2-(isopropylamino)-9H-purin-9-yl)cyclohexanecarboxamide]	500 to 1000
NC(=O)[C@H]1CC[C@@H](n2c(Nc3c(Cl)cc(C(F)(F)F)cc3Cl)nc3cnc(NC4CCOCC4)nc32)CC1 [Example 442, (1s,4s)-4-(8-(2,6-dichloro-4-(trifluoromethyl)phenylamino)-2-(tetrahydro-2H-pyran-4-ylamino)-9H-purin-9-yl)cyclohexanecarboxamide]	250 to 500
N#Cc1ccc(Cl)c(Nc2nc3cnc(NC4CCOCC4)nc3n2[C@H]2CC[C@@H](C(N)=O)CC2)c1Cl [Example 443, (1s,4s)-4-(8-(2,6-dichloro-3-cyanophenylamino)-2-(tetrahydro-2H-pyran-4-ylamino)-9H-purin-9-yl)cyclohexanecarboxamide]	> 1000
NC(=O)[C@H]1CC[C@@H](n2c(Nc3c(Cl)cc(Cl)cc3Cl)nc3cnc(N[C@H]4CCCC[C@@H](O)C4)nc32)CC1 [Example 444, (1R,4s)-4-(2-((1S,3R)-3-hydroxycycloheptylamino)-8-(2,4,6-trichlorophenylamino)-9H-purin-9-yl)cyclohexanecarboxamide]	> 1000
NC(=O)[C@H]1CC[C@@H](n2c(Nc3c(F)cc(Cl)cc3F)nc3cnc(N[C@@H]4CCO[C@H](CO)C4)nc32)CC1 [Example 445, (1S,4s)-4-(8-(4-chloro-2,6-difluorophenylamino)-2-((2S,4R)-2-(hydroxymethyl)tetrahydro-2H-pyran-4-ylamino)-9H-purin-9-yl)cyclohexanecarboxamide]	250 to 500
NC(=O)[C@H]1CC[C@@H](n2c(Nc3c(F)cc(F)cc3F)nc3cnc(N[C@@H]4CCO[C@H](CO)C4)nc32)CC1 [Example 446, (1S,4s)-4-(2-((2S,4R)-2-(hydroxymethyl)tetrahydro-2H-pyran-4-ylamino)-8-(2,4,6-trifluorophenylamino)-9H-purin-9-yl)cyclohexanecarboxamide]	> 1000
N#Cc1ccc(F)c(Nc2nc3cnc(NC4CCOCC4)nc3n2[C@H]2CC[C@@H](C(N)=O)CC2)c1F [Example 447, (1s,4s)-4-(8-(3-cyano-2,6-difluorophenylamino)-2-(tetrahydro-2H-pyran-4-ylamino)-9H-purin-9-yl)cyclohexanecarboxamide]	> 1000
N#Cc1cc(F)c(Nc2nc3cnc(N[C@H]4CCCC[C@H](O)C4)nc3n2[C@H]2CC[C@@H](C(N)=O)CC2)c(Cl)c1 [Example 448, (1R,4s)-4-(8-(2-chloro-4-cyano-6-fluorophenylamino)-2-((1S,3S)-3-hydroxycycloheptylamino)-9H-purin-9-yl)cyclohexanecarboxamide]	> 1000
N#Cc1cc(Cl)c(Nc2nc3cnc(N[C@H]4CCCC[C@H](O)C4)nc3n2[C@H]2CC[C@@H](C(N)=O)CC2)c(Cl)c1 [Example 449, (1R,4s)-4-(8-(2,6-dichloro-4-cyanophenylamino)-2-((1S,3S)-3-hydroxycycloheptylamino)-9H-purin-9-yl)cyclohexanecarboxamide]	> 1000
NC(=O)[C@H]1CC[C@@H](n2c(Nc3c(Cl)cc(Cl)cc3Cl)nc3cnc(NCC(F)(F)CO)nc32)CC1 [Example 450, (1s,4s)-4-(2-(2,2-difluoro-3-hydroxypropylamino)-8-(2,4,6-trichlorophenylamino)-9H-purin-9-yl)cyclohexanecarboxamide]	> 1000
NC(=O)[C@H]1CC[C@@H](n2c(Nc3c(F)cc(Cl)cc3Cl)nc3cnc(NCC(F)(F)CO)nc32)CC1 [Example 451, (1s,4s)-4-(8-(2,4-dichloro-6-fluorophenylamino)-2-(2,2-difluoro-3-hydroxypropylamino)-9H-purin-9-yl)cyclohexanecarboxamide]	> 1000
NC(=O)[C@H]1CC[C@@H](n2c(Nc3c(Cl)cc(F)cc3Cl)nc3cnc(NCC(F)(F)CO)nc32)CC1 [Example 452, (1s,4s)-4-(8-(2,6-dichloro-4-fluorophenylamino)-2-(2,2-difluoro-3-hydroxypropylamino)-9H-purin-9-yl)cyclohexanecarboxamide]	> 1000
NC(=O)[C@H]1CC[C@@H](n2c(Nc3c(F)cc(Cl)cc3F)nc3cnc(NCC(F)(F)CO)nc32)CC1 [Example 453, (1s,4s)-4-(8-(4-chloro-2,6-difluorophenylamino)-2-(2,2-difluoro-3-hydroxypropylamino)-9H-purin-9-yl)cyclohexanecarboxamide]	> 1000
NC(=O)[C@H]1CC[C@@H](n2c(Nc3c(Cl)cc(C(F)(F)F)cc3Cl)nc3cnc(N[C@@H]4CCC[C@H](O)C4)nc32)CC1 [Example 454, (1S,4s)-4-(8-(2,6-dichloro-4-(trifluoromethyl)phenylamino)-2-((1R,3S)-3-hydroxycyclohexylamino)-9H-purin-9-yl)cyclohexanecarboxamide]	500 to 1000
N#Cc1cc(Cl)c(Nc2nc3cnc(N[C@@H]4CCC[C@H](O)C4)nc3n2[C@H]2CC[C@@H](C(N)=O)CC2)c(Cl)c1 [Example 455, (1S,4s)-4-(8-(2,6-dichloro-4-cyanophenylamino)-2-((1R,3S)-3-hydroxycyclohexylamino)-9H-purin-9-yl)cyclohexanecarboxamide]	< 250
N#Cc1cc(F)c(Nc2nc3cnc(N[C@@H]4CCC[C@H](O)C4)nc3n2[C@H]2CC[C@@H](C(N)=O)CC2)c(Cl)c1 [Example 456, (1S,4s)-4-(8-(2-chloro-4-cyano-6-fluorophenylamino)-2-((1R,3S)-3-hydroxycyclohexylamino)-9H-purin-9-yl)cyclohexanecarboxamide]	500 to 1000
N#Cc1cc(F)c(Nc2nc3cnc(N[C@@H]4CCC[C@H](O)C4)nc3n2[C@H]2CC[C@@H](C(N)=O)CC2)c(F)c1 [Example 457, (1S,4s)-4-(8-(4-cyano-2,6-difluorophenylamino)-2-((1R,3S)-3-hydroxycyclohexylamino)-9H-purin-9-yl)cyclohexanecarboxamide]	> 1000
NC(=O)[C@H]1CC[C@@H](n2c(Nc3c(F)cc(F)cc3F)nc3cnc(N[C@H]4CCC[C@H](O)C4)nc32)CC1 [Example 458, (1R,4s)-4-(2-((1S,3S)-3-hydroxycyclohexylamino)-8-(2,4,6-trifluorophenylamino)-9H-purin-9-yl)cyclohexanecarboxamide]	> 1000
NC(=O)[C@H]1CC[C@@H](n2c(Nc3c(F)cc(F)cc3Cl)nc3cnc(N[C@H]4CCC[C@H](O)C4)nc32)CC1 [Example 459, (1R,4s)-4-(8-(2-chloro-4,6-difluorophenylamino)-2-((1S,3S)-3-hydroxycyclohexylamino)-9H-purin-9-yl)cyclohexanecarboxamide]	> 1000
NC(=O)[C@H]1CC[C@@H](n2c(Nc3c(F)cc(Cl)cc3F)nc3cnc(N[C@H]4CCC[C@H](O)C4)nc32)CC1 [Example 460, (1R,4s)-4-(8-(4-chloro-2,6-difluorophenylamino)-2-((1S,3S)-3-hydroxycyclohexylamino)-9H-purin-9-yl)cyclohexanecarboxamide]	> 1000
